The record followed here is article PMC3546728, “Bacterial Over-Expression and Purification of the 3′phosphoadenosine 5′phosphosulfate (PAPS) Reductase Domain of Human FAD Synthase: Functional Characterization and Homology Modeling” (International Journal of Molecular Sciences, 2012).

For assay [1], the target named is T1, 6-His-Δ1-328-hFADS (Homo sapiens, UniProt Q8NFF5).
T1 construct: gene FLAD1; C-terminal PAPS reductase domain, residues 329-587; vector pH6EX3; E. coli Rosetta (DE3); theoretical 31499 Da, ~28 kDa on SDS-PAGE
Briefly: absorbance spectrum of purified holoprotein; HPLC of flavin released by acid. The format is binding. The conditions noted are these: co-purified, tightly bound FAD, 40 mM Hepes/Na, 5 mM β-mercaptoethanol, pH 7.4.

For assay [2], the target named is T1, 6-His-Δ1-328-hFADS. Briefly: fluorimetric FAD synthesis rate. The format is biochemical. The following applies: competitive; data not shown.

T1 sequence (Q8NFF5 329-587, stated change not applied): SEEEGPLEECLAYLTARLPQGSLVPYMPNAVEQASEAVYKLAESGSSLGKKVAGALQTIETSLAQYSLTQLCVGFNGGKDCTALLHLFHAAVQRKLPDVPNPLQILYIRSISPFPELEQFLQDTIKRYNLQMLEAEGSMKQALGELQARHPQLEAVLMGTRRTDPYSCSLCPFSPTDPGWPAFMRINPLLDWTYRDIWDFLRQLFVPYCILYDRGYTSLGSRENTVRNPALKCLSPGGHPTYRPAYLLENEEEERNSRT

Consider `Cc1cc2nc3c(=O)[nH]c(=O)nc-3n(C[C@H](O)[C@H](O)[C@H](O)COP(=O)(O)OP(=O)(O)OC[C@H]3O[C@@H](n4cnc5c(N)ncnc54)[C@H](O)[C@@H]3O)c2cc1C` [FAD], for which the FAD/protein monomer ratio result in assay [1] was “demonstrates that the bound cofactor is FAD with a FAD/protein monomer ratio”.

`Nc1nc2c(ncn2[C@@H]2O[C@H](COP(=O)(O)OP(=O)(O)O)[C@@H](O)[C@H]2O)c(=O)[nH]1` [GDP]: the “fluorimetric FAD synthesis rate” value in assay [2] is given as “no significant changes were found in competitive inhibition by GDP (data not shown)”.
